Each compound was assayed on β-catenin-TCF-mediated reporter transcription activity in Colo 205 cells (assay: Colo 205 reporter assay (TCF/LEF luciferase)). Conditions: Colo 205 TCF/LEF luciferase reporter, five hours after addition of compound; read-out: TCF reporter Colo205 IC50.
Assay type: cell-based
How it was run: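 Luciferase signal from a TCF/LEF-driven reporter, stably integrated in Colo 205 colon cancer cells, was measured 5 h after compound addition.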
For `CC[C@H]1C(=O)Nc2c(C)nc(NCc3cnn(Cc4ccc(OC(F)F)nc4)c3)nc2N1C` [Compound 417, (7S)-2-(((1-((6-(difluoromethoxy)pyridin-3-yl)methyl)-1H-pyrazol-4-yl)methyl)amino)-7-ethyl-4,8-dimethyl-7,8-dihydropteridin-6(511)-one], the IC50 was less than 0.3 µM.

Same assay, conditions: Colo 205 cells with stably transfected TCF/LEF luciferase reporter; five hours after addition of compound; read-out: TCF reporter Colo205
Work on `CC(=O)NCCCC[C@H](N)C(=O)N(Cc1cnn(Cc2ccc(C(F)(F)F)nc2)c1)c1nc(C)c2c(n1)N(C)[C@@H](C)C(=O)N2` [Compound 404, (7S)-6-acetamido-2-amino-N-((1-((6-(trifluoromethyl)pyridin-3-yl)methyl)-1H-pyrazol-4-yl)methyl)-N-((S)-4,7,8-trimethyl-6-oxo-5,6,7,8-tetrahydropteridin-2-yl)hexanamide] yielded an IC50 of no less than 5 µM.

Same assay, conditions: Homo sapiens, COLO 205, 5 h, Colo 205 TCF/LEF luciferase reporter, five hours after addition of compound; read-out: TCF reporter Colo205 IC50
`CC(=O)c1nc(C(F)(F)F)ccc1Cn1cc(CNc2nc(C)c3c(n2)N(C)[C@@H](C)C(=O)N3)cn1` [Compound 413, (7S)-2-(((1-((2-acetyl-6-(trifluoromethyl)pyridin-3-yl)methyl)-1H-pyrazol-4-yl)methyl)amino)-4,7,8-trimethyl-7,8-dihydropteridin-6(5H)-one] gave an IC50 of less than 0.3 µM. For `Cc1nc(NCc2cnn(Cc3ccc(Cl)nc3)c2)nc2c1NC(=O)[C@H](C(C)C)N2C` [Compound 414, (7S)-2-(((1-((6-chloropyridin-3-yl)methyl)-1H-pyrazol-4-yl)methyl)amino)-7-isopropyl-4,8-dimethyl-7,8-dihydropteridin-6(5H)-one], the IC50 was less than 0.3 µM. In the case of `Cc1nc(NCc2cnn(Cc3ccc(OC(F)F)nc3)c2)nc2c1NC(=O)[C@H](C(C)C)N2C` [Compound 422, (7S)-2-(((1-((6-(difluoromethoxy)pyridin-3-yl)methyl)-1H-pyrazol-4-yl)methyl)amino)-7-isopropyl-4,8-dimethyl-7,8-dihydropteridin-6(5H)-one], the IC50 is reported as less than 0.3 µM. Compound `CC[C@H]1C(=O)Nc2c(C)nc(NCc3cnn(Cc4cnc(Cl)c(F)c4)c3)nc2N1C` [Compound 426, (7S)-2-(((1-((6-chloro-5-fluoropyridin-3-yl)methyl)-1H-pyrazol-4-yl)methyl)amino)-7-ethyl-4,8-dimethyl-7,8-dihydropteridin-6(5H)-one] has an IC50 of less than 0.3 µM. For `COc1ccc(Cn2cc(CNc3nc(C)c4c(n3)N(C)[C@@H](C(C)C)C(=O)N4)cn2)cn1` [Compound 429, (7S)-7-isopropyl-2-(((1-((6-methoxypyridin-3-yl)methyl)-1H-pyrazol-4-yl)methyl)amino)-4,8-dimethyl-7,8-dihydropteridin-6(5H)-one], the IC50 was less than 0.3 µM. `CC[C@H]1C(=O)Nc2c(C)nc(NCc3cnn(Cc4ccc(Cl)nc4)c3)nc2N1C` [Compound 432, (7S)-2-(((1-((6-chloropyridin-3-yl)methyl)-1H-pyrazol-4-yl)methyl)amino)-7-ethyl-4,8-dimethyl-7,8-dihydropteridin-6(5H)-one] was tested, and the IC50 was less than 0.3 µM. `CC[C@H]1C(=O)Nc2c(C)nc(NCc3cnn(Cc4ccc(OCC(F)(F)F)nc4)c3)nc2N1C` [Compound 433, (7S)-7-ethyl-4,8-dimethyl-2-(((1-((6-(2,2,2-trifluoroethoxy)pyridin-3-yl)methyl)-1H-pyrazol-4-yl)methyl)amino)-7,8-dihydropteridin-6(5H)-one] showed an IC50 of less than 0.3 µM. Compound `Cc1nc(NCc2cnn(Cc3ccc(OCC(F)(F)F)nc3)c2)nc2c1NC(=O)[C@H](C1CC1)N2C` [Compound 435, (7S)-7-cyclopropyl-4,8-dimethyl-2-(((1-((6-(2,2,2-trifluoroethoxy)pyridin-3-yl)methyl)-1H-pyrazol-4-yl)methyl)amino)-7,8-dihydropteridin-6(5H)-one] has an IC50 of less than 0.3 µM. Compound `Cc1nc(NCc2cnn(Cc3ccc(Cl)nc3)c2)nc2c1NC(=O)[C@H](C(C)(C)C)N2C` [Compound 438, (7S)-7-(tert-butyl)-2-(((1-((6-chloropyridin-3-yl)methyl)-1H-pyrazol-4-yl)methyl)amino)-4,8-dimethyl-7,8-dihydropteridin-6(5H)-one] has an IC50 of less than 0.3 µM. With `Cc1nc(NCc2cnn(Cc3ccc(C(F)(F)F)nc3)c2)nc2c1NC(=O)[C@H](CCO)N2` [Compound 439, (S)-7-(2-hydroxyethyl)-4-methyl-2-(((1-((6-(trifluoromethyl)pyridin-3-yl)methyl)-1H-pyrazol-4-yl)methyl)amino)-7,8-dihydropteridin-6(5H)-one] the IC50 was no less than 5 µM. `Cc1nc(NCc2cnn(Cc3ccc(C4CC4)nc3)c2)nc2c1NC(=O)[C@H](C1CC1)N2C` [Compound 441, (7S)-7-cyclopropyl-2-(((1-((6-cyclopropylpyridin-3-yl)methyl)-1H-pyrazol-4-yl)methyl)amino)-4,8-dimethyl-7,8-dihydropteridin-6(5H)-one] showed an IC50 of less than 0.3 µM. With `Cc1nc(NCc2cnn(Cc3ccc(C4CC4)nc3)c2)nc2c1NC(=O)[C@H](C(C)C)N2C` [Compound 442, (7S)-2-(((1-((6-cyclopropylpyridin-3-yl)methyl)-1H-pyrazol-4-yl)methyl)amino)-7-isopropyl-4,8-dimethyl-7,8-dihydropteridin-6(5H)-one] the IC50 was less than 0.3 µM. In the case of `Cc1nc(NCc2cnn(CCc3ccc(C(F)(F)F)nc3)c2)nc2c1NC(=O)[C@H](C)N2C` [Compound 444, (7S)-4,7,8-trimethyl-2-(((1-(2-(6-(trifluoromethyl)pyridin-3-yl)ethyl)-1H-pyrazol-4-yl)methyl)amino)-7,8-dihydropteridin-6(5H)-one], the IC50 is reported as 0.3 to 1 µM. With `Cc1nc(NCc2cnn(Cc3ccnc(Cl)c3)c2)nc2c1NC(=O)[C@H](C(C)C)N2C` [Compound 446, (7S)-2-(((1-((2-chloropyridin-4-yl)methyl)-1H-pyrazol-4-yl)methyl)amino)-7-isopropyl-4,8-dimethyl-7,8-dihydropteridin-6(5H)-one] the IC50 was less than 0.3 µM. For `Cc1nc(NCc2cnn(Cc3ccnc(N(C)C)c3)c2)nc2c1NC(=O)[C@H](C(C)C)N2C` [Compound 448, (S)-2-(((1-((2-(dimethylamino)pyridin-4-yl)methyl)-1H-pyrazol-4-yl)methyl)amino)-7-isopropyl-4,8-dimethyl-7,8-dihydropteridin-6(5H)-one], the IC50 was less than 0.3 µM. Work on `COc1c(F)cc(Cn2cc(CNc3nc(C)c4c(n3)N(C)[C@@H](C(C)C)C(=O)N4)nn2)cc1F` [Compound 451, (S)-2-(((1-(3,5-difluoro-4-methoxybenzyl)-1H-1,2,3-triazol-4-yl)methyl)amino)-7-isopropyl-4,8-dimethyl-7,8-dihydropteridin-6(5H)-one] yielded an IC50 of less than 0.3 µM. For `Cc1nc(NCc2cn(Cc3cc(F)c(F)c(F)c3)nn2)nc2c1NC(=O)[C@H](C(C)C)N2C` [Compound 452, (S)-7-isopropyl-4,8-dimethyl-2-(((1-(3,4,5-trifluorobenzyl)-1H-1,2,3-triazol-4-yl)methyl)amino)-7,8-dihydropteridin-6(5H)-one], the IC50 was less than 0.3 µM. Work on `Cc1nc(NCc2cc(C)n(-c3ccc(C(F)(F)F)cc3)c2C)nc2c1NC(=O)[C@H](C(C)C)N2C` [Compound 453, (S)-2-(((2,5-dimethyl-1-(4-(trifluoromethyl)phenyl)-1H-pyrrol-3-yl)methyl)amino)-7-isopropyl-4,8-dimethyl-7,8-dihydropteridin-6(5H)-one] yielded an IC50 of less than 0.3 µM. Work on `Cc1nc(NCc2cnn(Cc3ccc(F)cn3)c2)nc2c1NC(=O)[C@H](C(C)C)N2C` [Compound 454, (S)-2-(((1-((5-fluoropyridin-2-yl)methyl)-1H-pyrazol-4-yl)methyl)amino)-7-isopropyl-4,8-dimethyl-7,8-dihydropteridin-6(5H)-one] yielded an IC50 of less than 0.3 µM. `Cc1nc(NCc2cnn(Cc3cc(F)c(F)c(F)c3)c2)nc2c1NC(=O)[C@H](C1CC1)N2C` [Compound 456, (S)-7-cyclopropyl-4,8-dimethyl-2-(((1-(3,4,5-trifluorobenzyl)-1H-pyrazol-4-yl)methyl)amino)-7,8-dihydropteridin-6(5H)-one] was tested, and the IC50 was less than 0.3 µM.

Same assay, conditions: Homo sapiens, COLO 205, 5 h, Colo 205 cells with stably transfected TCF/LEF luciferase reporter; five hours after addition of compound; read-out: TCF reporter Colo205
Work on `Cc1nc(N(Cc2cnn(Cc3ccc(C(F)(F)F)nc3)c2)C(=O)NC2CCCCC2)nc2c1NC(=O)[C@H](C)N2C` [Compound 401, (7S)-3-cyclohexyl-1-((1-((6-(trifluoromethyl)pyridin-3-yl)methyl)-1H-pyrazol-4-yl)methyl)-1-(4,7,8-trimethyl-6-oxo-5,6,7,8-tetrahydropteridin-2-yl)urea] yielded an IC50 of no less than 5 µM. `Cc1nc(N(Cc2cnn(Cc3ccc(C(F)(F)F)nc3)c2)C(=O)[C@@H](N)C(C)C)nc2c1NC(=O)[C@H](C)N2C` [Compound 402, (S)-2-amino-3-methyl-N-((1-((6-(trifluoromethyl)pyridin-3-yl)methyl)-1H-pyrazol-4-yl)methyl)-N-((S)-4,7,8-trimethyl-6-oxo-5,6,7,8-tetrahydropteridin-2-yl)butanamide] gave an IC50 of no less than 5 µM. In the case of `Cc1nc(N(Cc2cnn(Cc3ccc(C(F)(F)F)nc3)c2)C(=O)CN)nc2c1NC(=O)[C@H](C)N2C` [Compound 406, (7S)-2-amino-N-((1-((6-(trifluoromethyl)pyridin-3-yl)methyl)-1H-pyrazol-4-yl)methyl)-N-(4,7,8-trimethyl-6-oxo-5,6,7,8-tetrahydropteridin-2-yl)acetamide], the IC50 is reported as no less than 5 µM. `COC(=O)N(Cc1cnn(Cc2ccc(C(F)(F)F)nc2)c1)c1nc(C)c2c(n1)N(C)[C@@H](C)C(=O)N2` [Compound 407, methyl (7S)-((1-((6-(trifluoromethyl)pyridin-3-yl)methyl)-1H-pyrazol-4-yl)methyl)(4,7,8-trimethyl-6-oxo-5,6,7,8-tetrahydropteridin-2-yl)carbamate] gave an IC50 of no less than 5 µM. `Cc1nc(N(Cc2cnn(Cc3ccc(C(F)(F)F)nc3)c2)C(=O)OC(C)OC(=O)C(C)C)nc2c1NC(=O)[C@H](C)N2C` (stereo partly drawn) [Compound 408, 1-((((1-((6-(trifluoromethyl)pyridin-3-yl)methyl)-1H-pyrazol-4-yl)methyl)((7S)-4,7,8-trimethyl-6-oxo-5,6,7,8-tetrahydropteridin-2-yl)carbamoyl)oxy)ethyl isobutyrate] was tested, and the IC50 was less than 0.3 µM.

Reference: patent publication US20230312587A1, “PTERIDINONE COMPOUNDS AND USES THEREOF” (Vertex Pharmaceutical Incorporated, priority 2018, published 2023)
